Experimental data as given in patent US20240424048A1, “CHINESE MEDICINE FORMULA FOR TREATING TUMORS AND/OR PULMONARY NODULES AND PREPARATION METHOD THEREOF” (priority 2023, published 2024).
Where two headings read alike, the source gives them in different places. Marks after values point to notes of the source that are not given here.

Key:
[1] = 15 mg/kg
Procedure: (§1) a first batch of experiments: C57BL/6 mice were randomly divided into 6 groups according to body weight. • Saline control group administered with physiological saline 20 ml/kg • Solvent control group administered with 35-degree white wine 20 ml/kg • Cyclophosphamide administered with 0.075% 15 mg/20 group cyclophosphamide ml/kg • Low dose group of anti-administered with 20% anti-lung cancer 4 ml/20 lung cancer vinum ml/kg • Mid dose group of anti-administered with 40% anti-lung cancer 8 ml/20 lung cancer vinum ml/kg • High dose group of anti-Administered with 80% anti-lung 16 ml/20 m lung cancer vinum cancer vinum l/kg • a second batch of experiments: randomly divided into 6 groups based on body weight: • Saline control group administered with physiological saline 20 ml/kg • Solvent control group administered with 35-degree white wine 20 ml/kg • Cyclophosphamide administered with 0.075% 15 mg/20 group cyclophosphamide ml/kg • Low dose group of anti-administered with 10% anti-lung cancer 2 ml/20 lung cancer vinum ml/kg • Mid dose group of anti-administered with 20% anti-lung cancer 4 ml/20 lung cancer vinum ml/kg • High dose group of anti-administered with 40% anti-lung cancer 8 ml/20 lung cancer vinum ml/kg
(§2) C57BL/6 mice were adaptively fed for 3-5 days, and an in vivo transplant tumor model was prepared using anti-tumor drug experimental methods. Each mouse was subcutaneously injected with 0.2 ml of cell suspension with a concentration of 2×10^7 cells/mL. On the second day, they were randomly divided into 6 groups based on body weight, with 20 mice in each group. Each group started administration the next day after tumor inoculation, and the drugs in each group were freshly prepared and administered at a dose of […], twice a day for 14, 16, or 21 consecutive days.
(§3) The first batch of experiments: measure a tumor volume and plot a tumor growth curve once on the 8th, 10th, 12th, and 14th day of administration; after 14 days of administration, 10 mice in each group were weighed and euthanized. Tumors, spleens, lungs, and thymus were removed, weighed, tumor inhibition rate and organ coefficient were calculated; after 21 days of administration, 6 mice in each group were perfused with physiological saline and their lungs were removed, fixed with Bouin solution and the number of metastatic lung nodules was examined under a microscope.
(§4) The second batch of experiments: measure the tumor volume and plot the tumor growth curve once on the 8th, 10th, 12th, 14th, and 16th day of administration; after 16 days of administration, 12 mice in each group were weighed and euthanized. Tumors, spleens, lungs, and thymus were removed, weighed, and the tumor inhibition rate and organ coefficient were calculated; after 21 days of administration, 6 mice in each group were perfused with physiological saline and their lungs were removed, fixed with Bouis solution and the number of metastatic lung nodules was examined under the microscope.

Lewis lung cancer = type: in vivo, mouse; conditions: 15 mg/kg
Text: C57BL/6 mice, 6-8 weeks old, weighing 19-21 g, male, provided by Liaoning Changsheng Biotechnology Co., Ltd., certificate number: SYSK (Ji) 2018-0001. Two batches of experiments all used male C57BL/6 mice, which were adaptively raised in a laboratory for 3-5 days before the experiment.
Mouse Lewis lung cancer cells were provided by Jilin Cancer Research Institute and passaged and preserved in the laboratory. Lewis lung cancer cells were resuscitated, cells were expanded to 2-3×10^8 cells/mL, cells were collected, and cell density was adjusted to 2×10^7 cells/mL.
as §1, §2, §3, §4

[2] = tested on: Lewis lung cancer lung metastasis; type: in vivo, mouse; conditions: 15 mg/kg; for Number of pulmonary nodules: after 21 days of administration
Procedure: as §1
C57BL/6 mice were adaptively fed for 3-5 days, and an in vivo transplant tumor model was prepared using anti-tumor drug experimental methods. Each mouse was subcutaneously injected with 0.2 ml of cell suspension with a concentration of 2×10^7 cells/mL. […]
as §3, with “microscope. […]” for “microscope.”

[3] = first batch, after 14 days of administration
[4] = second batch, after 16 days of administration

**Q.** Which “Toxicity (body weight, thymic coefficient, spleen coefficient of mice)” value [1] does the source give for `O=P1(N(CCCl)CCCl)NCCCO1` (centres unmarked) [Cyclophosphamide] here?
**A.** Its value is “significant toxic effects”.

**Q.** And the Weight before administration ([1]; first batch, Table 3)?
**A.** The Weight before administration was 20.30 ± 1.33 g.

**Q.** And the Lung coefficient [1, 3]?
**A.** Its Lung coefficient is 7.26 ± 0.85.

**Q.** And the Spleen coefficient [1, 3]?
**A.** Its Spleen coefficient is 3.40 ± 1.02.

**Q.** And the Thymic coefficient [1, 3]?
**A.** Its Thymic coefficient is 1.11 ± 0.35.

**Q.** And the Weight after administration [1, 3]?
**A.** Its Weight after administration is 20.30 ± 1.33 g.

**Q.** And the Weight after administration ([1]; first batch, after 21 days of administration)?
**A.** The Weight after administration was 21.81 ± 1.37 g.

**Q.** And the Weight after administration [1, 4]?
**A.** The Weight after administration was 21.58 ± 0.79 g.

**Q.** And the Lung coefficient [1, 4]?
**A.** The Lung coefficient was 6.66 ± 0.72.

**Q.** And the Spleen coefficient [1, 4]?
**A.** Its Spleen coefficient is 3.62 ± 0.86.

**Q.** And the Thymic coefficient [1, 4]?
**A.** Its Thymic coefficient is 0.47 ± 0.16.

**Q.** And the Weight after administration ([1]; second batch, after 21 days of administration)?
**A.** Its Weight after administration is 22.02 ± 1.71 g.

**Q.** What about the Volume of tumor (Lewis lung cancer; first batch, 8 days) of the same compound?
**A.** The Volume of tumor was 61.08##** mm^3.

**Q.** And the Volume of tumor (Lewis lung cancer; first batch, 10 days)?
**A.** The Volume of tumor was 244.09##** mm^3.

**Q.** What about the Volume of tumor (Lewis lung cancer; first batch, 12 days) of the same compound?
**A.** Its Volume of tumor is 817.83##** mm^3.

**Q.** And the Volume of tumor (Lewis lung cancer; first batch, 14 days)?
**A.** The Volume of tumor was 953.67##** mm^3.

**Q.** And the Tumor inhibition rate (Lewis lung cancer; [3])?
**A.** The Tumor inhibition rate was 63.52%.

**Q.** And the Weight of tumor (Lewis lung cancer; [3])?
**A.** The Weight of tumor was 0.59 ± 0.26 g.

**Q.** What about the Volume of tumor (Lewis lung cancer; second batch, 8 days) of the same compound?
**A.** Its Volume of tumor is 111.30##** mm^3.

**Q.** What about the Volume of tumor (Lewis lung cancer; second batch, 10 days) of the same compound?
**A.** The Volume of tumor was 165.52##** mm^3.

**Q.** What about the Volume of tumor (Lewis lung cancer; second batch, 12 days) of the same compound?
**A.** The Volume of tumor was 278.25##** mm^3.

**Q.** And the Volume of tumor (Lewis lung cancer; second batch, 14 days)?
**A.** Its Volume of tumor is 371.57##** mm^3.

**Q.** And the Volume of tumor (Lewis lung cancer; second batch, 16 days)?
**A.** The Volume of tumor was 461.54##** mm^3.

**Q.** What about the Tumor inhibition rate (Lewis lung cancer; [4]) of the same compound?
**A.** The Tumor inhibition rate was 67.43%.

**Q.** What about the Weight of tumor (Lewis lung cancer; [4]) of the same compound?
**A.** The Weight of tumor was 0.56 ± 0.22 g.

**Q.** And the Tumor inhibition rate (Lewis lung cancer; summary of both batches, by gavage)?
**A.** Its Tumor inhibition rate is 65.48%.

**Q.** What about the “Effect on lung metastasis in Lewis lung cancer mice” value ([2]; continuous administration for 21 days) of the same compound?
**A.** The value was “can inhibit lung metastasis”.

**Q.** And the “Number of pulmonary nodules” value ([2]; first batch)?
**A.** The value was 6.17 ± 1.94.

**Q.** What about the “Number of pulmonary nodules” value ([2]; second batch) of the same compound?
**A.** The value was 6.67 ± 1.21.
